Laboratory results: US20240368092A1, “2,4-Dihydro-3H-1,2,4-Triazol-3-One P2X7 Antagonists” (Breye Therapeutics ApS, priority 2021, published 2024)

Key:
Format in all cases: cell-based
humanP2X7 = target: T1, humanP2X7 (Homo sapiens, UniProt Q99572); assay: P2X7 channel calcium-influx assay (Fluo-8, FLIPR TETRA), human P2X7; conditions: HEK-293 cells stably transfected with P2X7; Bz-ATP at EC80; low divalent cation buffer; read-out: humanP2X7 (activity range)
T1 construct: expressed in transfected cells; host or cells: HEK-293
T1 sequence (Q99572 1-595): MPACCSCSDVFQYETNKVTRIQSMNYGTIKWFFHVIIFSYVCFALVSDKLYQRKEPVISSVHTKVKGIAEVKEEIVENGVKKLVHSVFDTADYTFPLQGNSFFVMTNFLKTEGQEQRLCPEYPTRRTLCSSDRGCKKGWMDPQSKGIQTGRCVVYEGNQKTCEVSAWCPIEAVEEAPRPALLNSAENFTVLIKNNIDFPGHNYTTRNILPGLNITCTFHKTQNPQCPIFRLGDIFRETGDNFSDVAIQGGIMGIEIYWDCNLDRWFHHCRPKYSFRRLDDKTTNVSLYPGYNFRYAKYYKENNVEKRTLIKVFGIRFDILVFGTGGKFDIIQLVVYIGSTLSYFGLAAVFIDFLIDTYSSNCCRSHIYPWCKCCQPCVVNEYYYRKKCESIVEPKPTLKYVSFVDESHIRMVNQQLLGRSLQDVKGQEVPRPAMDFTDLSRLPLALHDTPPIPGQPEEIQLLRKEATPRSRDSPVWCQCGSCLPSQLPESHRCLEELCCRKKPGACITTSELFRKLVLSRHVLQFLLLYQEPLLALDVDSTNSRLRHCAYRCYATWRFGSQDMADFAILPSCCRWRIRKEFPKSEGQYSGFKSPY
Procedure: (§1) Extracellular binding of Bz-ATP to P2X7 receptor opens the channel and allows Ca^2+ influx into the cells. This Ca^2+ entry was measured in HEK-293 cells stably transfected with P2X7 receptor using Screen Quest™ Fluo-8 No Wash Calcium Assay Kit (AAt Bioquest®, cat. 36316). Once inside the cell, the lipophilic blocking groups of Fluo-8 are cleaved by non-specific cell esterases, resulting in a negatively-charged fluorescent dye that stays inside cells. Its fluorescence increases upon binding to calcium. When HEK-293/P2X7 cells are stimulated with Bz-ATP, Ca^2+ enters the cells and the fluorescence of Fluo-8 NW increases. The dye has an absorption spectrum compatible with excitation at 488 nm by argon laser sources and its emission wavelength is in the range of 515-575 nm.
(§2) HEK-293 cells stably transfected with P2X7 receptor were seeded overnight in growth medium at 10,000 to 20,000 cells/well in 384-well plate. 24 hours later, the medium was removed, and the cells were pre-loaded at RT for 1 hour with 20 μL/w of Fluo-8 NW. Then 10 μL/w of test compounds and reference antagonist A438079 at 3×-concentration were injected with the FLIPRTETRA and the kinetic response over a period of five minutes was monitored. A second injection of 15 μL/w of 3× reference activator (Bz-ATP at EC80) was performed with the FLIPR TETRA and the signal of the emitted fluorescence was recorded for additional three minutes. All the experiment was carried out in a Low Divalent Cation Assay Buffer (0.3 mM Ca^2+ and 0 mM Mg^2+). The effect of the test compounds was measured as percent inhibition vs the reference antagonist and IC50 values were calculated accordingly. Here are reported the potency ranges as A, B, C and D, where A is <200 nM; B is 200 nM-1 μM, C is 1-10 μM, D is 10-30 μM.

human P2X7 channel = target: T2, human P2X7 channel (Homo sapiens, UniProt Q99572); assay: human P2X7 channel assay by automated patch-clamp (QPatch 16X); conditions: HEK-293 cells expressing P2X7; current evoked by 100 microM BzATP; whole-cell, held at -80 mV; read-out: human Q-Patch (activity range)
T2 construct: expressed in transfected cells; host or cells: HEK-293
T2 sequence (Q99572 1-595): T1 sequence (Q99572 1-595)
Procedure: In order to directly monitor the block of P2X7 channel, an electrophysiological assay was developed and implemented on the QPatchl6X automated electrophysiology instrument.
HEK-293 cells expressing the P2X7 channels were cultured in modified EMEM.
72 hours before experiment, 5 million cells were seeded onto T225 flasks. Just before the experiment cells were washed twice, detached from the flask with trypsin-EDTA, re-suspended in the suspension solution and placed on the QPatch 16x.
The compounds (20 mM in a 100% DMSO) stored at −20° C. were prepared the day of the experiment (a first dilution 1:20 in 100% DMSO to prepare a 1 mM stock solution, then a 1 microM solution in external solution+a serial dilution 1:10).
The standard whole-cell voltage clamp experiments were performed at room temperature. From these experiments the multihole technology was used and the data were sampled at 2 KHz.
The intracellular solution contained (mM) 135 CsF, 10 NaCl, 1 EGTA, 10 HEPES, (pH 7.2 with CsOH) whereas the extracellular contained (mM) 145 NaCl, 4 KCl, 0.5 MgCl2, 1 CaCl2, 10 HEPES, 10 Glc (pH 7.4 with NaOH).
After establishment of the seal and the passage in the whole cell configuration, the cells were held at −80 mV. The P2XR7 current was evoked by applying 100 microM of BzATP alone (4 times) and then in the presence increasing concentrations of the compound under investigation (1, 10, 100 and 1000 nM).
The pre-incubation periods 5 to 8 contain increasing concentrations of the compound of interest (1, 10, 100 and 1000 nM), as illustrated in FIGURE (application protocol).
The maximal inward current evoked by BzATP in absence or presence of increasing concentrations of the compounds under investigation was measured and normalized. The potential […] effect was measured as % of control and as IC50 determined fitting the dose-response curves data with the following equation:
Here are reported the potency ranges as A, B, C and D, where A is <10 nM; B is 10 nM-100 nM, C is 0.1-1 μM, D is 1-10 μM.

mouseP2X7 = target: T3, mouseP2X7 (Mus musculus, UniProt Q9Z1M0); assay: P2X7 channel calcium-influx assay (Fluo-8, FLIPR TETRA), mouse P2X7; conditions: HEK-293 cells stably transfected with P2X7; Bz-ATP at EC80; low divalent cation buffer; read-out: mouseP2X7 (activity range)
T3 construct: expressed in transfected cells; host or cells: HEK-293
T3 sequence (Q9Z1M0 1-595): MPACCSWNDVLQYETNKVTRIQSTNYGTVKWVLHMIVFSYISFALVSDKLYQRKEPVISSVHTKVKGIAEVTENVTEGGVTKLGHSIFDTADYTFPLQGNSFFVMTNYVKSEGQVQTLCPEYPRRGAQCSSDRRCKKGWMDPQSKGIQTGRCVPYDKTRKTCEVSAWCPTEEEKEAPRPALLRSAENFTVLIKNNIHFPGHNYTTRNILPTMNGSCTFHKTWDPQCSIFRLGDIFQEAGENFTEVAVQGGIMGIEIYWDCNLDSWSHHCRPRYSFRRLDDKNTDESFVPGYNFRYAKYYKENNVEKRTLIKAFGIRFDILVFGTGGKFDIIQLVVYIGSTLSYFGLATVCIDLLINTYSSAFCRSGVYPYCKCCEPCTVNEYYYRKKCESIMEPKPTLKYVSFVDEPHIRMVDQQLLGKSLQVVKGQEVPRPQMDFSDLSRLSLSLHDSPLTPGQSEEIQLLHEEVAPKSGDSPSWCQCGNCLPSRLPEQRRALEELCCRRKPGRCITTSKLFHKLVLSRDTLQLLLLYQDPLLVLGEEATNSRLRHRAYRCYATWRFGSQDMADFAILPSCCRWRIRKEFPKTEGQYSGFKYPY
Procedure: as §1, §2

ratP2X7 = target: T4, ratP2X7 (Rattus norvegicus, UniProt Q64663); assay: P2X7 channel calcium-influx assay (Fluo-8, FLIPR TETRA), rat P2X7; conditions: HEK-293 cells stably transfected with P2X7; Bz-ATP at EC80; low divalent cation buffer; read-out: ratP2X7 (activity range)
T4 construct: expressed in transfected cells; host or cells: HEK-293
T4 sequence (Q64663 1-595): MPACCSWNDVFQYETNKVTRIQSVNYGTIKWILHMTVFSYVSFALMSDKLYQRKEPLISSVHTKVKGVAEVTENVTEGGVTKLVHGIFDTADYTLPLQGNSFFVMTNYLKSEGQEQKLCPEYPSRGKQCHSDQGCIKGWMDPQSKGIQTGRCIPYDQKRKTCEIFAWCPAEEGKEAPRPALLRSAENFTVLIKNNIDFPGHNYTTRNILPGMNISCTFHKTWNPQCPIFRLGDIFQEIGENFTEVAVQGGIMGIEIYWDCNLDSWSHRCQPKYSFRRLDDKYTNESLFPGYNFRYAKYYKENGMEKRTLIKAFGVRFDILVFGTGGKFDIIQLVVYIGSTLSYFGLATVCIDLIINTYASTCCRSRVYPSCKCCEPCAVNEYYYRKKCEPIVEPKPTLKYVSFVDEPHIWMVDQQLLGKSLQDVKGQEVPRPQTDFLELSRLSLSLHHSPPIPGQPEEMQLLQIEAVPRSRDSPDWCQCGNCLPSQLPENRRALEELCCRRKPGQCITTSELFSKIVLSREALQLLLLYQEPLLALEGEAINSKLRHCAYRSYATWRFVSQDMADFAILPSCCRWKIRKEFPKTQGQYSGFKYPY
Procedure: as §1, §2

Structure (SMILES)	IC50 (humanP2X7)	IC50 (human P2X7 channel)	IC50 (mouseP2X7)	IC50 (ratP2X7)
CCn1nc(Cc2c(F)cccc2Cl)n(CC2CCC(F)(F)CC2)c1=O [Example 34, 5-(2-chloro-6-fluorobenzyl)-4-((4,4-difluorocyclohexyl)methyl)-2-ethyl-2,4-dihydro-3H-1,2,4-triazol-3-one]	< 0.2 µM	0.01 to 0.1 µM	< 0.2 µM	< 0.2 µM
Cn1nc(Cc2c(F)cccc2Cl)n(CCO)c1=O [Example 53, 5-(2-chloro-6-fluorobenzyl)-4-(2-hydroxyethyl)-2-methyl-2,4-dihydro-3H-1,2,4-triazol-3-one]	10 to 30 µM	1 to 10 µM	10 to 30 µM	10 to 30 µM
Cn1nc(Cc2c(F)cccc2Cl)n(CCN2CCOCC2(C)C)c1=O [Example 30, 5-(2-chloro-6-fluorobenzyl)-4-(2-(3,3-dimethylmorpholino)ethyl)-2-methyl-2,4-dihydro-3H-1,2,4-triazol-3-one]	1 to 10 µM	1 to 10 µM	10 to 30 µM	1 to 10 µM
Cn1nc(Cc2ccccc2F)n(CCC2CCC(C)(C)CC2)c1=O [Example 45, 4-(2-(4,4-dimethylcyclohexyl)ethyl)-5-(2-fluorobenzyl)-2-methyl-2,4-dihydro-3H-1,2,4-triazol-3-one]	1 to 10 µM	1 to 10 µM	10 to 30 µM	1 to 10 µM
Cn1nc(Cc2ccccc2C(F)(F)F)n(CCC2CCC(C)(C)CC2)c1=O [Example 49, 4-(2-(4,4-dimethylcyclohexyl)ethyl)-2-methyl-5-(2-(trifluoromethyl)benzyl)-2,4-dihydro-3H-1,2,4-triazol-3-one]	1 to 10 µM	1 to 10 µM	10 to 30 µM	10 to 30 µM
Cn1nc(Cc2ccccc2C(F)(F)F)n(CC2CCCCC2(C)C)c1=O (stereo not drawn) [Example 23, 4-((2,2-dimethylcyclohexyl)methyl)-2-methyl-5-(2-(trifluoromethyl)benzyl)-2,4-dihydro-3H-1,2,4-triazol-3-one]	0.2 to 1 µM	1 to 10 µM	0.2 to 1 µM	< 0.2 µM

Other lines, results leading:

IC50 (humanP2X7)	IC50 (human P2X7 channel)	IC50 (mouseP2X7)	IC50 (ratP2X7)	Structure (SMILES)
10 to 30 µM	1 to 10 µM	10 to 30 µM	10 to 30 µM	Cn1nc(CC2CCCCC2)n(Cc2ccnc(C(F)(F)F)c2)c1=O [Example 13, 5-(cyclohexylmethyl)-2-methyl-4-((2-(trifluoromethyl)pyridin-4-yl)methyl)-2,4-dihydro-3H-1,2,4-triazol-3-one]
0.2 to 1 µM	1 to 10 µM	1 to 10 µM	0.2 to 1 µM	Cn1nc(CC2CCCCC2)n(Cc2cc(-c3ncc(F)cn3)ccc2Cl)c1=O [Example 38, 4-(2-chloro-5-(5-fluoropyrimidin-2-yl)benzyl)-5-(cyclohexylmethyl)-2-methyl-2,4-dihydro-3H-1,2,4-triazol-3-one]
< 0.2 µM	0.01 to 0.1 µM	< 0.2 µM	< 0.2 µM	O=c1n(CC(F)(F)F)nc(Cc2c(F)cccc2Cl)n1CC1CCCCCC1 [Example 67, 5-[(2-chloro-6-fluorophenyl)methyl]-4-(cycloheptylmethyl)-2-(2,2,2-trifluoroethyl)-2,4-dihydro-3H-1,2,4-triazol-3-one]
< 0.2 µM	< 0.01 µM	< 0.2 µM	< 0.2 µM	Cn1nc(Cc2c(F)cccc2Cl)n(CC2CCCCCC2)c1=O [Example 12, 5-(2-chloro-6-fluorobenzyl)-4-(cycloheptylmethyl)-2-methyl-2,4-dihydro-3H-1,2,4-triazol-3-one]
1 to 10 µM	1 to 10 µM	1 to 10 µM	< 0.2 µM	Cn1nc(Cc2ccccc2F)n(CC2CCCCC2)c1=O [Example 27, 4-(cyclohexylmethyl)-5-(2-fluorobenzyl)-2-methyl-2,4-dihydro-3H-1,2,4-triazol-3-one]
10 to 30 µM	1 to 10 µM	10 to 30 µM	10 to 30 µM	Cn1nc(Cc2ccc(F)cc2)n(Cc2cc(-c3ncc(F)cn3)ccc2Cl)c1=O [Example 29, 4-(2-chloro-5-(5-fluoropyrimidin-2-yl)benzyl)-5-(4-fluorobenzyl)-2-methyl-2,4-dihydro-3H-1,2,4-triazol-3-one]
